For one experiment, the system named is cloned mammalian (mSlo or hSlo) BK channels. Briefly: BK-mediated outward current in Xenopus oocytes, two-electrode voltage clamp. The experiment is classed as cell-based. Conditions: at 20 μM; expressed as percent increase over BK current in controls; IBTX-sensitive current; at least 5 oocytes. The method, then: The ability of compounds described in the present invention to open BK channels and increase whole-cell outward (K^+) BK-mediated currents was assessed under voltage-clamp conditions by determining their ability to increase cloned mammalian (mSlo or hSlo) BK-mediated outward current heterologously expressed in Xenopus oocytes [Butler, A., et al., Science, 261: 221-224 (1993); and Dworetzky, S. I., et al., Mol. Brain Res., 27: 189-193 (1994)]. The two BK constructs employed represent nearly structurally identical homologous proteins, and have proven to be pharmacologically identical in our tests. To isolate BK current from native (background, non-BK) current, the specific and potent BK channel-blocking toxin iberiotoxin (IBTX) [Galvez, A., et al., J. Biol. Chem., 265: 11083-11090 (1990)] was employed at a supramaximal concentration (50 nM). The relative contribution of BK channels current to total outward current was determined by subtraction of the current remaining in the presence of IBTX (non-BK current) from the current profiles obtained in all other experimental conditions (control, drug, and wash). […] All compounds were tested in at least 5 oocytes and are reported at the single concentration of 20 μM; the effect of the selected compounds of Formula I on BK current was expressed as the percent of control IBTX-sensitive current and is listed in Table I. Recordings were accomplished using standard two-electrode voltage clamp techniques [Stuhmer, W., et al., Methods in Enzymology, Vol. 207: 319-339 (1992)]; voltage-clamp protocols consisted of 500-750 ms duration step depolarizations from a holding potential of -60 mV to +140 mV in 20 mV steps. The experimental media (modified Barth's solution) consisted of (in mM): NaCl (88), NaHCO3 (2.4), KCl (1.0), HEPES (10), MgSO4 (0.82), Ca(NO3)2 (0.33), CaCl2 (0.41); pH 7.5.
On the technique in general: In two-electrode clamp one electrode senses voltage and the other passes current.
Take `Nc1c(-c2cc(Cl)ccc2O)c2cc(C(F)(F)F)ccc2[nH]c1=O` [Example 2, 3-Amino-4-(5-chloro-2-hydroxyphenyl)-6-(trifluoromethyl)quinolin-2(1H)-one]: the “BK Current” value is on record as “++ (++ = > 150%)”.
Take `O=c1[nH]c2ccc(C(F)(F)F)cc2c(-c2cc(Cl)ccc2O)c1NS(=O)(=O)C(F)(F)F` [Example 5, N-[4-(5-Chloro-2-hydroxyphenyl)-2-oxo-6-(trifluoromethyl)-1H-quinolin-3-yl]trifluoromethanesulfonamide]: the “BK Current” value was “++ (++ = > 150%)”.
On to `O=C(Nc1c(-c2cc(Cl)ccc2O)c2cc(C(F)(F)F)ccc2[nH]c1=O)c1ccccc1` [Example 10, N-[4-(5-Chloro-2-hydroxyphenyl)-2-oxo-6-(trifluoromethyl)-1H-quinolin-3-yl]benzamide], for which the “BK Current” value was “+ (+ = 100-150%)”.
In the case of `Nc1c(-c2cc(Cl)ccc2O)c2ccccc2[nH]c1=O` [Example 14, 3-Amino-4-(5-chloro-2-hydroxyphenyl)quinolin-2(1H)-one], the “BK Current” value is reported as “+ (+ = 100-150%)”.
For `O=C(Nc1c(-c2cc(Cl)ccc2O)c2cc(C(F)(F)F)ccc2[nH]c1=O)OCc1ccccc1` [Example 17, N-[4-(5-Chloro-2-hydroxyphenyl)-2-oxo-6-(trifluoromethyl)-1H-quinolin-3-yl]aminocarboxylic acid, phenylmethyl ester], the “BK Current” value is “++ (++ = > 150%)”.
On to `Nc1c(-c2cc(Cl)ccc2O)c2cc([N+](=O)[O-])ccc2[nH]c1=O` [Example 19, 3-Amino-4-(5-chloro-2-hydroxyphenyl)-6-nitroquinolin-2(1H)-one], for which the “BK Current” value is “++ (++ = > 150%)”.
In the case of `O=C(Nc1c(-c2cc(Cl)ccc2O)c2cc(C(F)(F)F)ccc2[nH]c1=O)c1ccc(O)cc1` [Example 29, N-[4-(5-Chloro-2-hydroxyphenyl)-2-oxo-6-(trifluoromethyl)-1H-quinolin-3-yl]-4-hydroxybenzamide], the “BK Current” value is “+ (+ = 100-150%)”.
As for `COc1ccc(CC(=O)Nc2c(-c3cc(Cl)ccc3O)c3cc(C(F)(F)F)ccc3[nH]c2=O)cc1` [Example 32, N-[4-(5-Chloro-2-hydroxyphenyl)-2-oxo-6-(trifluoromethyl)-1H-quinolin-3-yl]-(4-methoxyphenyl)acetamide], the “BK Current” value was “+ (+ = 100-150%)”.
As for `Nc1c(-c2cc(Cl)ccc2O)c2cc(Cl)c(C(F)(F)F)cc2[nH]c1=O` [Example 43, 3-Amino-4-(5-chloro-2-hydroxyphenyl)-6-chloro-7-(trifluoromethyl)quinolin-2(1H)-one], the “BK Current” value is recorded as “+ (+ = 100-150%)”.
As for `Nc1c(-c2cc(Cl)ccc2O)c2c(C(F)(F)F)c(Cl)ccc2[nH]c1=O` [Example 44, 3-Amino-4-(5-chloro-2-hydroxyphenyl)-6-chloro-5-(trifluoromethyl)quinolin-2(1H)-one], the “BK Current” value was “+ (+ = 100-150%)”.
Same read-out and setting: next, `O=c1[nH]c2ccc(C(F)(F)F)cc2c(-c2cc(Cl)ccc2O)c1NS(=O)(=O)c1ccc([N+](=O)[O-])cc1` [Example 64, N-[4-(5-Chloro-2-hydroxyphenyl)-2-oxo-6-(trifluoromethyl)-1H-quinolin-3-yl]-4-nitrobenzene-sulfonamide]: “++ (++ = > 150%)”; `O=c1[nH]c2ccc(C(F)(F)F)cc2c(-c2cc(Cl)ccc2O)c1NS(=O)(=O)c1ccc(F)cc1` [Example 66, N-[4-(5-Chloro-2-hydroxyphenyl)-2-oxo-6-(trifluoromethyl)-1 H-quinolin-3-yl]-(4-fluorobenzene)sulfonamide]: “++ (++ = > 150%)”.
For the compound `Cn1c(=O)c(N)c(-c2cc(Cl)ccc2O)c2cc(C(F)(F)F)ccc21` [Example 68, 3-Amino-4-(5-chloro-2-hydroxy-phenyl)-1-methyl-6-(trifluoro-methyl)quinolin-2(1H)-one], the “BK Current” value was “+ (+ = 100-150%)”.
As for `Nc1c(-c2ccc(O)c(Cl)c2)c2cc(C(F)(F)F)ccc2[nH]c1=O` [Example 71, 3-Amino-4-(3-chloro-4-hydroxy-phenyl)-6-(trifluoromethyl)quinolin-2(1H)-one], the “BK Current” value was “+ (+ = 100-150%)”.

In a further experiment the test system is cortical infarct volume after middle cerebral artery occlusion. Briefly: Permanent focal ischemia, middle cerebral artery occlusion (MCAO model). The experiment is classed as in vivo, spontaneously hypertensive rat. The settings on record: 0.001 mg/kg intravenous single bolus 30 minutes after MCAO; vs vehicle-treated control; infarct measured 24 hours after MCAO. The text has this:
To determine the ability of these compounds to reduce cell loss resulting from neuronal ischemia, a standard rodent model of permanent focal ischemia, involving occlusion of the middle cerebral artery in the spontaneously hypertensive rat (MCAO model) was employed [Tamura, A., et al., Journal of Cerebral Blood Flow and Metabolism, Volume 1, 53-60, (1981)].
Selected compounds have been evaluated in the focal stroke model involving permanent middle cerebral artery occlusion (MCAO) in the spontaneously hypertensive rat. This procedure results in a reliably large neocortical infarct volume that is measured by means of vital dye exclusion in serial slices through the brain 24 hours after MCAO. In the present test, compounds were administered using an intravenous route of administration at 30 minutes after occlusion.
For the compound `Nc1c(-c2cc(Cl)ccc2O)c2cc(C(F)(F)F)ccc2[nH]c1=O` [Example 2, 3-Amino-4-(5-chloro-2-hydroxyphenyl)-6-(trifluoromethyl)quinolin-2(1H)-one], the “reduction of cortical infarct volume” value was “about 14%”.

The values are drawn from US5972961A, “4-aryl-3-aminoquinoline-2-one derivatives as potassium channel modulators” (Bristol-Myers Squibb Company, priority 1998, dated 1999).
